The results in this text go back to US8338414B2, “Immunosuppressive agent and anti-tumor agent comprising heterocyclic compound as active ingredient” (Zenyaku Kogyo KabushikiKaisha, priority 2005, dated 2012).

Structures are written as SMILES. Read-outs that look alike come from different tables or passages of the source. A value given as a limit tells only on which side of the number the result lay.

Series [1] is described as follows: Test for measuring blood level. In kind it is in vivo. The following applies: mouse, serum; BDF1 male mice, 200 mg/kg oral, one hour after the administration. The method, then:
A pharmacokinetic study was performed using 6 week-old BDF1 male mice. The test substances were mixed with hydroxylpropylcellulose (low-molecular weight form) [HPC(L)] in 2.5-fold of the drug weight, and dissolved in dichloromethane. The solvent was evaporated to dryness. To make the dosing formation, the residue was suspended in distilled water to prepare the drug level of 20 mg/mL. The test compounds were administered compulsorily and orally at a dose of 200 mg/kg to the mice that had been starved for 16 hours. One hour after the administration, blood was collected from the orbits of two mice to obtain serum. Internal standards solution and 1 ml of distilled water were added to 100 μL, of serum thus obtained, and then extracted with diethylether. The solvent was evaporated under vacuum, and the residue was resolved with eluent to provide samples for the HPLC measurement. HPLC was performed by using reversed-phase type column, and acetonitrile-phosphate buffer (pH 2.5) was used as the eluent. Using regression curves (Y=aX+b) obtained from the standards, the drug levels in the sample serum were calculated.

In another series the test system is mouse spleen cells. In words: Proliferation inhibition assay for mouse spleen cells. In kind it is cell-based. The following applies: 72 h, 3 days, Alamar Blue. An outline of the steps: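 C57BL/6N female mouse spleen cells (2×10^6 cells/mL) stimulated with Con A (3 μg/mL), LPS (100 μg/mL) or anti-mouse IgM (100 μg/mL) alongside serially diluted compounds, 3 days at 37° C, 5% CO2. Alamar Blue added for a further day; fluorescence read at ex 530/em 590 nm.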

Series [2] has as its system Salmonella typhimurium TA98, TA100, TA1535, TA1537 and Escherichia coli WP2uvrA. The series is described as follows: Ames test. In kind it is cell-based. The note with it: preincubation method, with or without S-9, up to 5000 μg/flat plate. The method, then: Using 5 strains of Salmonella typhimurium TA98, TA100, TA1535, TA1537 and Escherichia coli WP2uvrA, the test substances (Compound 4, Compound 19, Compound 22 and Compound 24) were tested for their mutagenesis according to a preincubation method.

Another series deals with Daudi cells. The series is described as follows: Proliferation inhibitory activity on hematologic neoplasm cells, Daudi. The note with it: Homo sapiens, Daudi, 72 h; 3 days, Alamar Blue. In kind it is cell-based.
In a further series the test system is Jurkat cells. In words: Proliferation inhibitory activity on hematologic neoplasm cells, Jurkat. The following applies: Homo sapiens, Jurkat, 72 h; 3 days, Alamar Blue. The format is cell-based.
For a further series, the system named is THP-1 cells. In words: Proliferation inhibitory activity on hematologic neoplasm cells, THP-1. The format is cell-based. The note with it: Homo sapiens, THP-1, 72 h; 3 days, Alamar Blue.
Series [3] relates to human peripheral blood mononuclear cells. In words: Proliferation inhibition assay for human peripheral blood mononuclear cells. In kind it is cell-based. The note with it: Homo sapiens, 72 h; PBMC, anti-CD3 and anti-CD28 antibody, 3 days, Alamar Blue. The method, then: 4 mL of blood collected from healthy subjects was placed on 3 mL of MonoPoly Resolving Medium, and after centrifugation, the mononuclear cell (PBMC) fraction was collected. After washing with saline, PBMC (1×10^5 cells/mL) was suspended in RPMI 1640 medium (containing 10% fetal bovine serum, 10 mM HEPES, 1 mM pyruvic acid, and 4.5 g/L glucose). Next, after having added an anti-CD28 antibody (1 μg/mL) to the suspension, they were seeded on an anti-human CD3 T cell activation plate (BD Bioscience) at a capacity of 0.135 mL per well. Then, serial dilutions of test substances were added to respective wells, and incubated under conditions of carbon dioxide 5% at a temperature 37° C. After 3 days, Alamar Blue solution was added at 50 μL per well, and after incubation for one day, a fluorescence intensity at 590 nm using an excitation wavelength of 530 nm was determined by Cytoflour 4000 (Applied Biosystems).

For series [4] the test system is unchanged. The series is described as follows: Activation inhibition assay for human peripheral blood mononuclear cells (CD40L, CD69 expression). The format is cell-based. The following applies: PBMC, anti-CD3 + anti-CD28, 6 hours, flow cytometry. The method, then:
In accordance with the method of Assay Example 2, PBMC (2×10^6 cells/mL) was isolated from human peripheral blood, suspended in RPMI 1640 medium (containing 10% fetal bovine serum, 10 mM HEPES, 1 mM pyruvic acid, and 4.5 g/L glucose), and seeded in wells of a 96 well plate at 0.225 mL per well. The test substances were added to respective wells, and then an anti-CD3 antibody (2 μg/mL) and an anti-CD28 antibody (1 μg/mL) were added. Then, after incubation under conditions of carbon dioxide 5% at a temperature 37° C. for 6 hours, the expressions of CD40L and CD69, activation markers, were analysed by flow cytometry. As a result, when the cells were stimulated by both an anti-CD3 antibody and an anti-CD28 antibody, CD40L was expressed on 14.4% of PBMC, which was also CD4 positive. However, the proportion of the cells which expressed CD40L decreased when the cells had been treated with test substances (Compound 4: 4.9%; Compound 20: 3.7%, Compound 24: 3.6%).

Series [5] relates to Rabbit synoviocytes HIG-82. In words: Inhibition assay for proliferation of rabbit synoviocyte. The note with it: Oryctolagus cuniculus, 72 h; HIG-82, 3 days, Alamar Blue. The format is cell-based.
Series [6] has as its system allogeneic mixed lymphocyte reaction. In words: Allogeneic mixed lymphocyte reaction. The format is cell-based, mouse. The note with it: Mus musculus, Lymphocyte; C57BL/6N spleen stimulator cells, BALB/c lymph node responder cells, 86 hours, BrdU. The method, then: Spleen cells prepared from C57BL/6N female mice (8-10 weeks old, purchased from Charles River Laboratories Japan Inc.) and peripheral lymph node mononuclear cells prepared from BALB/c female mice (8-10 weeks old, purchased from Charles River Laboratories Japan Inc.) were used as stimulator cells and responder cells, respectively. The respective cells were suspended in RPMI 1640 medium (containing 10% fetal bovine serum, 100 units/mL penicillin, and 0.1 mg/mL streptomycin) (with 2×10^6 cells/mL).

In the next series the test system is HL 60 cells. The series is described as follows: Proliferation inhibitory activity on hematologic neoplasm cells, HL60. The format is cell-based. The note with it: Homo sapiens, HL-60, 72 h; 3 days, Alamar Blue. The method, then: (§1) Daudi cells (5×10^5 cells/mL), Jurkat cells (5×10^5 cells/mL), THP-1 cells (5×10^5 cells/mL), U 937 cells (5×10^5 cells/mL), and HL 60 cells (5×10^5 cells/mL) suspended in RPMI 1640 medium (containing 10% fetal bovine serum, 10 mM HEPES, 1 mM pyruvic acid, 4.5 g/L glucose, 100 units/mL penicillin, and 0.1 mg/mL streptomycin) were seeded in 96 well plates at a capacity of 0.135 mL per well. Serial dilutions of test substances were added to respective wells at 15 μL/well, and incubated under conditions of carbon dioxide 5% at 37° C. for 3 days. Thereafter, Alamar Blue solution was added at 50 μL, and after incubation for one day, the fluorescence intensity at 590 nm using an excitation wavelength of 530 nm was determined by Cytoflour 4000 (Applied Biosystems).

The subject of another series is U 937 cells. In words: Proliferation inhibitory activity on hematologic neoplasm cells, U937. In kind it is cell-based. The note with it: Homo sapiens, U-937, 72 h; 3 days, Alamar Blue. The method, then: as §1
The next series deals with fulminant hepatitis. The series is described as follows: Fulminant hepatitis model (galactosamine and LPS). In kind it is in vivo, mouse. The following applies: BALB/c mice, galactosamine 800 mg/kg and LPS 110 μg/kg i.p. The method, then:
BALB/c male mice (7 weeks old, purchased from Charles River Laboratories Japan Inc.) were used in the experiment. After having orally administered the test substances suspended in 5% HPC, galactosamine (800 mg/kg) and LPS (110 μg/kg) were intraperitoneally administered. Then, survival rates at 72 hours after administration were obtained.

Setting [7] is: LPS 100 μg/mL, read-out: Inhibition of LPS response.
Setting [8] is: anti-mouse IgM antibody 100 μg/mL, read-out: Inhibition of Anti-IgM antibody response.
Where [9] appears, read: concanavalin A 3 μg/mL, read-out: Inhibition of Con A response.

The compound `CCOc1cccc2c1nc(C(F)F)n2-c1nc(N2CCOCC2)cc(N2CCOC(C)(C)C2)n1` [Compound 38, 2-(2-Difluoromethyl-4-ethoxybenzimidazol-1-yl)-4-(2,2-dimethylmorpholino)-6-morpholinopyrimidine] gave a melting point of 114 to 116 °C. In [1], the concentration at 1 h came to 5910 ng/mL.
Compound `COc1cccc2c1nc(C(F)F)n2-c1nc(N2CCOCC2)cc(N2CCOC(C)(C)C2)n1` [Compound 36, 2-(2-Difluoromethyl-4-methoxybenzimidazol-1-yl)-4-(2,2-dimethylmorpholino)-6-morpholinopyrimidine] came in with a melting point of 166 to 168 °C. In addition, the concentration at 1 h in [1] stood at 7170 ng/mL.
With `CC1(C)COCCN1c1cc(N2CCOCC2)nc(-n2c(C(F)F)nc3c(O)cccc32)n1` [Compound 22, 2-(2-Difluoromethyl-4-hydroxybenzimidazol-1-yl)-4-(3,3-dimethylmorpholino)-6-morpholinopyrimidine], the melting point fell in the range of 204 to 206 °C. For the same compound, the IC50 in the series on mouse spleen cells (setting [7]) is no more than 1 nM. The IC50 in the series with mouse spleen cells (setting [8]) is no more than 1 nM. Moreover, the IC50 in the series with mouse spleen cells (setting [9]) is no more than 1 nM. The “mutagenesis (colony number of reverse mutation)” value in [2] is “negative”.
The compound `COc1cccc2c1nc(C(F)F)n2-c1nc(N2CCOCC2)cc(N2CCO[C@@H](C)[C@H]2C)n1` (relative stereo) [Compound 37, 2-(2-Difluoromethyl-4-methoxybenzimidazol-1-yl)-4-(cis-2,3-dimethylmorpholino)-6-morpholinopyrimidine] had a melting point of 176 to 178 °C. For the same compound, in [1], the concentration at 1 h was 4760 ng/mL.
For the compound `CC1(C)CN(c2nc(N3CCOCC3)nc(-n3c(C(F)F)nc4c(Cl)cc(N)cc43)n2)CCO1` [Compound 19, 2-(6-Amino-4-chloro-2-difluoromethylbenzimidazol-1-yl)-4-(2,2-dimethylmorpholino)-6-morpholino-1,3,5-triazine], the melting point was 238 °C (dec.). The IC50 with mouse spleen cells (setting [7]) fell in the range of 1 to 100 nM. The IC50 in the series on mouse spleen cells (setting [9]) was in the range of 1 to 100 nM. Further, in the series on Daudi cells, the IC50 came to 21.2 nM. The compound also registered an IC50 in the series with Jurkat cells of 1600 nM. Moreover, the IC50 in the series with THP-1 cells is 120 nM. In addition, the “mutagenesis (colony number of reverse mutation)” value in series [2] is recorded as “negative”.
For `OCC1CCCN1c1nc(N2CCOCC2)nc(-n2c(C(F)F)nc3c(O)cccc32)n1` (stereo not shown) [Compound 20, 2-(2-Difluoromethyl-4-hydroxybenzimidazol-1-yl)-4-(2-hydroxymethylpyrrolidin-1-yl)-6-morpholino-1,3,5-triazine], the IC50 was no more than 1 nM in the series on mouse spleen cells (setting [7]); no more than 1 nM in the series on mouse spleen cells (setting [8]); no more than 1 nM in the series on mouse spleen cells (setting [9]); 8.15 nM in series [3]; 122 nM in series [5]; 136 nM in series [6]. Further, the IC50 in the series on Daudi cells came out at 8.23 nM; in the series with Jurkat cells it was 196 nM; with HL 60 cells, 74.5 nM; in the series on THP-1 cells, 44 nM; with U 937 cells, 252 nM. Also, in series [4] (CD4 positive, 14.4% without test substance), the “proportion of the cells which expressed CD40L” value is 3.7%. Also, in series [4] (28.8% without test substance), the “proportion of CD4-positive cells which expressed CD69” value is listed as 10.1%. For the same compound, the “proportion of CD4-negative cells which expressed CD69” value in series [4] (50.9% without test substance) was found to be 10.5%. Further, the entries for the “Survival Rate after 72 Hours” value in the series with fulminant hepatitis (50 mg/kg oral) and with fulminant hepatitis (100 mg/kg oral) were 17% and 72%, respectively.
